Laboratory results as given in article PMC7377239, “Cardiovascular Effects of Polychlorinated Biphenyls and Their Major Metabolites” (Environmental Health Perspectives, 2020).
Like-named read-outs stand apart in the source and are kept apart here.

Tested on: iCell cardiomyocytes (human iPSC-derived cardiomyocytes)
Experiment: Intracellular Ca2+ flux / beating parameters in iCell cardiomyocytes (FLIPR tetra), 90 min or 24 h
Format: cell-based
Conditions: for activity at 0.01 µM / activity at 0.1 µM / activity at 1 µM / activity at 10 µM / activity at 100 µM: Homo sapiens, Cardiomyocyte, 0.00 µM = 100.00; for activity at 0.1 µM: 0.10 µM
In short: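 PODs were defined as the concentration crossing one SD of the vehicle-control means (0.5% DMSO) on four-parameter logistic fits of Ca2+ trace metrics (peak height, frequency, peak-spacing CV, decay/rise ratio). Traces came from 100 s, 8 Hz FLIPR reads at 37 °C on calcium-dye-loaded iCell cardiomyocytes. Before reading, cells were treated for 90 min or 24 h from 5× chemical plates spanning 0.05–500 µM, in triplicate.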

[1] = 1.5 h, 90min, read-out: cm.amp.avg.90min
[2] = 1.5 h, 90min, read-out: cm.amp.cv.90min
[3] = 1.5 h, 90min, read-out: cm.bpm.90min
[4] = 1.5 h, 90min, read-out: cm.decay.rise.90min
[5] = 1.5 h, 90min, read-out: cm.spacing.cv.90min
[6] = 24 h, 24hrs, read-out: cm.amp.avg.24hrs
[7] = 24 h, 24hrs, read-out: cm.amp.cv.24hrs
[8] = 24 h, 24hrs, read-out: cm.bpm.24hrs
[9] = 24 h, 24hrs, read-out: cm.decay.rise.24hrs
[10] = 24 h, 24hrs, read-out: cm.spacing.cv.24hrs

**Q.** How did the activity at 0.01 µM [1] turn out when `Oc1cc(Cl)c(-c2cc(Cl)ccc2Cl)cc1Cl` [4-OH PCB52] was run?
**A.** 107%

**Q.** What about the activity at 0.01 µM [2] of the same compound?
**A.** 94.5%

**Q.** And the activity at 0.01 µM [3]?
**A.** 97.8%

**Q.** And the activity at 0.01 µM [4]?
**A.** 98.4%

**Q.** What about the activity at 0.01 µM [5] of the same compound?
**A.** 115%

**Q.** And the activity at 0.1 µM [1]?
**A.** 103%

**Q.** And the activity at 0.1 µM [2]?
**A.** 96.5%

**Q.** And the activity at 0.1 µM [3]?
**A.** 99.1%

**Q.** And the activity at 0.1 µM [4]?
**A.** 96.6%

**Q.** What about the activity at 0.1 µM [5] of the same compound?
**A.** 104%

**Q.** And the activity at 1 µM [1]?
**A.** 110%

**Q.** What about the activity at 1 µM [2] of the same compound?
**A.** 99.2%

**Q.** What about the activity at 1 µM [3] of the same compound?
**A.** 91.5%

**Q.** What about the activity at 1 µM [4] of the same compound?
**A.** 99.2%

**Q.** And the activity at 1 µM [5]?
**A.** 108%

**Q.** What about the activity at 10 µM [1] of the same compound?
**A.** 105%

**Q.** And the activity at 10 µM [2]?
**A.** 100%

**Q.** And the activity at 10 µM [3]?
**A.** 58.9%

**Q.** What about the activity at 10 µM [4] of the same compound?
**A.** 114%

**Q.** And the activity at 10 µM [5]?
**A.** 102%

**Q.** What about the activity at 100 µM [1] of the same compound?
**A.** 0%

**Q.** What about the activity at 100 µM [2] of the same compound?
**A.** 0%

**Q.** And the activity at 100 µM [3]?
**A.** 0%

**Q.** What about the activity at 100 µM [4] of the same compound?
**A.** 0%

**Q.** And the activity at 100 µM [5]?
**A.** 0%

**Q.** What about the activity at 0.01 µM [6] of the same compound?
**A.** 125%

**Q.** What about the activity at 0.01 µM [7] of the same compound?
**A.** 96.2%

**Q.** And the activity at 0.01 µM [8]?
**A.** 105%

**Q.** What about the activity at 0.01 µM [9] of the same compound?
**A.** 93.1%

**Q.** And the activity at 0.01 µM [10]?
**A.** 102%

**Q.** And the activity at 0.1 µM [6]?
**A.** 79.9%

**Q.** What about the activity at 0.1 µM [7] of the same compound?
**A.** 128%

**Q.** What about the activity at 0.1 µM [8] of the same compound?
**A.** 95.5%

**Q.** And the activity at 0.1 µM [9]?
**A.** 89.2%

**Q.** What about the activity at 0.1 µM [10] of the same compound?
**A.** 94%

**Q.** And the activity at 1 µM [6]?
**A.** 112%

**Q.** And the activity at 1 µM [7]?
**A.** 79.4%

**Q.** What about the activity at 1 µM [8] of the same compound?
**A.** 86.9%

**Q.** And the activity at 1 µM [9]?
**A.** 101%

**Q.** And the activity at 1 µM [10]?
**A.** 82.1%

**Q.** What about the activity at 10 µM [6] of the same compound?
**A.** 80.2%

**Q.** What about the activity at 10 µM [7] of the same compound?
**A.** 113%

**Q.** And the activity at 10 µM [8]?
**A.** 86.9%

**Q.** What about the activity at 10 µM [9] of the same compound?
**A.** 104%

**Q.** What about the activity at 10 µM [10] of the same compound?
**A.** 96.7%

**Q.** And the activity at 100 µM [6]?
**A.** 0%

**Q.** And the activity at 100 µM [7]?
**A.** 0%

**Q.** And the activity at 100 µM [8]?
**A.** 0%

**Q.** What about the activity at 100 µM [9] of the same compound?
**A.** 0%

**Q.** And the activity at 100 µM [10]?
**A.** 0%

**Q.** How did the “effect on Ca2+ flux” value (iPSC-CM, 100 μM, because of loss of cell viability) turn out when `Oc1cc(Cl)c(-c2cc(Cl)ccc2Cl)cc1Cl` [4-OH-PCB 52] was run?
**A.** complete block of Ca^2+ flux
